Results on 16 compounds are retold here after PubChem BioAssay (NCI).

What all share (test): growth of human tumour cells (NCI), 48 h
Test [1] concerns A549 NSCLC.
Test [2] relates to HCT-15 colon.
In test [3] the test system is HL-60(TB) leukemia.
Test [4] relates to K-562 leukemia.
The test system of test [5] is MDA-MB-435.
For test [6], the system named is OVCAR-5 ovarian.
The test system of test [7] is PC-3 prostate.
Test [8] concerns SF-539 CNS.
The test system of test [9] is SW-620 colon.
Test [10] has as its system T-47D breast.

Several values for one entry are separate records, joined by “and”; a condition that tells them apart may be missing. Equal entries are not always repeated.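 How tested: cells in 96-well plates exposed to compound for 48 hours at five concentrations. Here, GI50 denotes the concentration required for 50% inhibition of growth. TGI marks complete inhibition of growth.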 Where a SMILES comes first, the peptide text is derived from it. The star is where a group is joined. Trt = c1ccc(C(c2ccccc2)(c2ccccc2)*)cc1; Cbz = O=C(OCc1ccccc1)* Bounds are passed on as bounds.

Turning to `COc1cnc2c(c1)C(=O)c1c-2n(CCCNC2=NCCS2)c(=O)c2cc(F)ccc12`, the GI50 in test [1] was 0.155 µM; in test [2], 1.21 µM; in test [3], 0.381 µM; in test [4], 0.249 µM; in [5] it was 0.75 µM; in [6], 0.795 µM. For the same compound, the GI50 in [7] is 0.208 µM; in [8], 0.305 µM; in [9], 0.12 µM; in test [10], 0.0762 µM. Further, the TGI came out at 1.75 µM in test [1]; 4.53 µM in test [2]; 1.56 µM in test [3]; 2.92 µM in test [4]; 2.37 µM in test [5]; 13.3 µM in [6]. The TGI amounted to 18.7 µM in [7], 1.09 µM in test [8], 3.34 µM in test [9] and 17.2 µM in test [10].

With `O=C1Nc2ccc(Cl)cc2/C1=C\c1c(-c2ccc(Cl)cc2)nc2sc(C3CC3)nn12`, the GI50 in test [1] was 3.58 µM; in [2] it was 4.36 µM; in test [3] it was 40.8 µM; in [4], 7.37 µM; in test [5] it was 9.36 µM; in [6] it was 11.7 µM. Further, the GI50 in test [7] was 5 µM; in test [8] it was 1.88 µM; in [9], 7.65 µM; in [10] it was 2.41 µM. Further, the TGI is 13.9 µM in test [1]; 17.6 µM in test [2]; over 100 µM in [3]; 24.7 µM in test [4]; 28.9 µM in [5]; 42.6 µM in test [6]. In addition, the TGI in test [7] was 19.6 µM; in test [8], 3.78 µM; in test [9] it was 55 µM; in [10], 22 µM.

Regarding `Cc1ccc(CNc2ccc(Br)cc2)cc1`, the TGI in test [1] was over 100 µM; in [2], 66.1 µM; in test [3], over 100 µM; in test [4] it was over 100 µM; in test [5], over 100 µM; in [6], over 100 µM. The TGI in test [7], in test [8], in test [9] and in test [10] was over 100 µM in each case.

For the compound `CO[C@H]1C[C@@H]2CC[C@@H](C)[C@@](O)(O2)C(=O)C(=O)N2CCCC[C@H]2C(=O)O[C@H]([C@H](C)C[C@@H]2CC[C@@H](OC(=O)C(C)(CO)CO)[C@H](OC)C2)CC(=O)[C@H](C)/C=C(\C)[C@@H](O)[C@@H](OC)C(=O)[C@H](C)C[C@H](C)\C=C/C=C/C=C/1C`, the GI50 is 0.067 µM in [1]; 0.112 µM in test [2]; over 10 µM in test [3]; 5.96 µM in [4]; 2.36 µM in test [5]; over 6.89 µM in test [6]. The GI50 in [7] is 0.00144 µM; in test [8], 0.00576 µM; in test [9], over 10 µM. For the same compound, the TGI in test [1], in [2], in test [3], in [4], in [5] and in test [6] was over 10 µM throughout. The TGI in test [7], in test [8], in test [9] and in [10] was over 10 µM throughout.

Regarding `COC(=O)NC1C(C)OC(OC2C/C=C(/C)C3C=CC4C(OC5CC(OC6CCC(OC7CC(O)C(OC8CCC(O)C(C)O8)C(C)O7)C(C)O6)C(OC(C)=O)C(C)O5)C(C)CC(C)C4C3(C)/C(O)=C3/C(=O)OC4(CC(C=O)=CC(O)C4/C=C\2C)C3=O)CC1(C)[N+](=O)[O-]` (stereo not given), the GI50 in test [1] is 0.48 µM; in test [2], 1.22 µM; in test [3], 0.354 µM; in [4], 0.218 µM; in [6] it was 1.14 µM; in [8] it was 0.0287 µM. Moreover, in test [9], the GI50 was 0.212 µM. In addition, the TGI in test [1] is 8.73 µM and 2.5 µM; in test [2], 3.4 µM and 4.26 µM; in [3], 4.43 µM and 2.53 µM; in test [4], 11 µM and 12.1 µM; in test [5] it was 1.06 µM; in test [6] it was 4.71 µM and 2.55 µM. Further, the TGI in [7] was 7.29 µM; in [9], 4.74 µM and 1.11 µM; in test [10], 10.2 µM.

As for `Clc1nccc2c(-c3csc(-c4c[nH]c5ccc(Br)cc45)n3)c[nH]c12`, the GI50 was 3.83 µM in test [1]; 1.4 µM in test [2]; 2.64 µM in [3]; 2.73 µM in [4]; 3.43 µM in test [5]; 3.14 µM in test [6]. The GI50 in test [7] was 3.86 µM; in test [8] it was 1.87 µM; in test [9], 1.92 µM; in test [10], 3.12 µM. Moreover, the TGI in test [1] was found to be 12.8 µM; in test [2] it was 3.33 µM; in test [3] it was 14.1 µM; in test [4], 9.44 µM; in test [5], 13 µM; in test [6], 9.88 µM. Besides, the TGI in test [7] was found to be 14 µM; in [8], 6.14 µM; in test [9], 3.63 µM; in [10], 18 µM.

With `Oc1ccc(Cl)cc1C(c1cc(Cl)ccc1O)C(Cl)(Cl)Cl`, the GI50 in test [1] was 2.68 µM; in [2], 1.94 µM; in test [3] it was 2.45 µM; in test [4], 2.28 µM; in test [5], 1.95 µM; in test [6] it was 1.66 µM. For the same compound, the GI50 was 1.79 µM in test [7], 1.69 µM in test [8], 1.73 µM in test [9] and 3.32 µM in test [10]. Moreover, the TGI stood at 8.25 µM in test [1]; 5.07 µM in [2]; 5.13 µM in [3]; 5.59 µM in test [4]; 4.21 µM in test [5]; 3.68 µM in test [6]. In addition, the TGI is 4.76 µM in [7], 3.67 µM in test [8], 3.3 µM in [9] and 12.4 µM in [10].

On to `COc1cccc2c1-c1nc(N)c3c(OC)cccc3c1C2=O`, for which the TGI in test [1] was over 100 µM; in [2] it was over 100 µM; in test [3], 72.5 µM; in [4], over 100 µM; in [5] it was over 100 µM; in [6] it was over 100 µM. Besides, the TGI in [7], in [8], in test [9] and in test [10] was over 100 µM throughout.

For `CN=C(N)c1ccc(N=C(N)c2ccc(-c3ccc(C(N)=Nc4ccc(C(N)=NC)cc4)cc3)cc2)cc1`, the GI50 is over 100 µM in [1]; over 100 µM in [2]; 58.3 µM in [3]; 89.5 µM in [4]; 59.2 µM in [5]; over 100 µM in test [6]. The GI50 was over 100 µM in [7], over 100 µM in test [8], over 100 µM in test [9] and 58.2 µM in test [10]. Besides, the TGI in test [1], in test [2], in test [3], in test [4], in [5] and in [6] was over 100 µM in each case. Moreover, the TGI in [7], in test [8], in test [9] and in test [10] was over 100 µM in each case.

On to `C/C(=N\O)c1ccc2ccc3ccccc3c2c1`, for which the TGI is 79.8 µM in [1]; over 100 µM in test [2]; 66.6 µM in [3]; 93 µM in test [4]; 46.9 µM in test [5]; over 100 µM in [6]. Moreover, the TGI in test [7] was over 100 µM; in [8], 38.8 µM; in test [9] it was over 100 µM; in test [10], over 100 µM.

For the compound `O=C1CC2OCC=C3CN4CCC56c7ccccc7N1C5C2C3CC46O` (stereo not given), the TGI in test [1], in [2], in test [3], in [4], in test [5] and in [6] was over 100 µM throughout. Also, the TGI in [7], in [8], in test [9] and in [10] was over 100 µM throughout.

Take `COC(=O)C(CO)NC(=O)C(CSC(c1ccccc1)(c1ccccc1)c1ccccc1)NC(=O)OCc1ccccc1` (stereo not given) (Cbz-Cys(Trt)-Ser-OMe; configuration not given here): the TGI in test [1] was over 48.5 µM; in test [2] it was over 52.9 µM; in test [3] it was over 43.6 µM; in test [4], over 49 µM; in test [5], 30.2 µM; in [6], 35.3 µM. Besides, the TGI is 27.4 µM in test [7], 26.3 µM in [8], 32.4 µM in [9] and over 52 µM in test [10].

For `COc1cccc(/C=C/C(=O)c2ccc3cc(OC)ccc3c2)c1`, the GI50 was 15.5 µM in test [1]; 9.73 µM in test [2]; 17.5 µM in [3]; 9.13 µM in test [4]; 7.38 µM in [5]; 11.1 µM in test [6]. The GI50 was 18.3 µM in [7], 7.95 µM in [8], 7.03 µM in test [9] and 10.7 µM in [10]. Further, the TGI in test [1] was 49.4 µM; in test [2] it was 30.8 µM; in test [3], over 50 µM; in test [4], over 50 µM; in test [5] it was 19 µM; in [6], 25.5 µM. The TGI in test [7] is over 50 µM; in test [8] it was 16.8 µM; in test [9] it was 20.5 µM; in test [10], 25.7 µM.

As to `O=C1CC(c2c[nH]c3ccc(F)cc23)C(=O)N1` (stereo not given), the GI50 in test [1], in [2], in test [3], in test [4], in test [5] and in test [6] was over 100 µM throughout. Further, the GI50 in test [7], in test [8], in test [9] and in [10] was over 100 µM throughout. In addition, the TGI in test [1], in test [2], in test [3], in [4], in test [5] and in [6] was over 100 µM in each case. Further, the TGI in [7], in [8], in test [9] and in test [10] was over 100 µM each time.

Consider `O=C1/C(=C/c2ccc(Cl)c(Cl)c2)CN(C(=O)C(Cl)Cl)C/C1=C\c1ccc(Cl)c(Cl)c1`, for which the GI50 was 0.22 µM in test [1]; 0.033 µM in [2]; 0.198 µM in [3]; 0.0369 µM in test [4]; 0.222 µM in test [5]; 0.204 µM in test [6]. Also, the GI50 in test [7] was 0.0737 µM; in [8], 0.184 µM; in [9], 0.0364 µM; in test [10], 0.256 µM. Moreover, the TGI in [1] is 0.908 µM; in [2], 0.802 µM; in test [3], 1.05 µM; in test [4], over 36.2 µM; in test [5] it was 0.546 µM; in test [6], 0.545 µM. In addition, the TGI in [7] turned out to be 0.712 µM; in [8] it was 0.444 µM; in test [9], 0.196 µM; in test [10] it was 1.77 µM.

As for `COc1cc(/C=C2\C(=O)N(Cc3ccc(Cl)cc3)c3ccccc32)cc(OC)c1OC`, the GI50 is 4.27 µM in test [1]; 1.68 µM in test [2]; 1.94 µM in [3]; 2.78 µM in test [4]; 2.32 µM in test [5]; 3.38 µM in [6]. Also, the GI50 in test [7] is 2.43 µM; in test [8], 4.95 µM; in test [9], 1.78 µM; in test [10], 2.16 µM. Further, the TGI in [1] is 19.2 µM; in test [2], 3.43 µM; in [3] it was 5.44 µM; in [4], 16.4 µM; in [5], 7.03 µM; in test [6] it was 14.5 µM. For the same compound, the TGI in test [7] turned out to be 17.2 µM; in [8] it was 11.1 µM; in [9], 3.53 µM; in test [10] it was 7.72 µM.
